How the values were obtained:
[1] = target: T1, hKv1.5 (Homo sapiens, UniProt P22460); assay: Kv1.5 electrophysiology, whole cell patch clamp; type: cell-based; settings: CHO stably transfected with hKv1.5, whole cell patch clamp, room temperature
T1 construct: expressed in transfected cells; host or cells: CHO
Method: The ability of the compounds of the invention to inhibit the Kv1.5 potassium channel was measured in an electrophysiology experiment, using recombinant cells expressing the channel of interest in a whole cell patch clamp experiment.
The external bathing solution contained (in mM): 150 NaCl, 10 KCl, 3 MgCl2, 1 CaCl2, HEPES, pH 7.4. Patch pipettes were filled with an electrode solution of composition (in mM): 160 KCl, 0.5 MgCl2, 10 HEPES, 1 EGTA, pH 7.2 with KOH.
Compounds were dissolved in DMSO (100%) and freshly made up in the external bather at the desired concentration (final DMSO concentration=0.1%). All experiments were conducted at room temperature.
For whole-cell patch-clamp studies cells (CHO stably transfected with hKv1.5) were seeded onto glass coverslips before recordings were made. Cells were seeded in sterile 30 mm Petri dishes at a density to enable isolated cells to be selected for patch clamp experiments. The dishes were stored in a humidified, gassed (5% CO2) incubator at 37° C. until use.
Whole-cell patch-clamp recordings of membrane currents were made following gigaohm seal formation between the patch electrode and the cell using HEKA EPC-9/10 amplifiers controlled by Pulse Software (Ver8.5x/8.6x, HEKA, Germany). Coverslips seeded with cells were placed in a recording chamber mounted on the stage of an inverted microscope. During the experiment the cell of interest was continuously superfused with bather solution delivered via a cannula placed in close proximity to the cell to enable control of the extracellular solution environment. Only those cells with a current>500 pA were used for experiments. […]
Electrophysiology voltage-step protocols and analysis of data was performed as follows. […] Mean currents during 75-95% of the depolarising step to 0 mV were analysed using Pulsefit software (v8.x, HEKA, Germany). […] The test substance was allowed to equilibrate during which time voltage protocol was repeatedly applied and recorded. Percentage inhibition of the current in the presence of test substance was calculated relative to the control pre-drug value.

T1 sequence (P22460 whole entry): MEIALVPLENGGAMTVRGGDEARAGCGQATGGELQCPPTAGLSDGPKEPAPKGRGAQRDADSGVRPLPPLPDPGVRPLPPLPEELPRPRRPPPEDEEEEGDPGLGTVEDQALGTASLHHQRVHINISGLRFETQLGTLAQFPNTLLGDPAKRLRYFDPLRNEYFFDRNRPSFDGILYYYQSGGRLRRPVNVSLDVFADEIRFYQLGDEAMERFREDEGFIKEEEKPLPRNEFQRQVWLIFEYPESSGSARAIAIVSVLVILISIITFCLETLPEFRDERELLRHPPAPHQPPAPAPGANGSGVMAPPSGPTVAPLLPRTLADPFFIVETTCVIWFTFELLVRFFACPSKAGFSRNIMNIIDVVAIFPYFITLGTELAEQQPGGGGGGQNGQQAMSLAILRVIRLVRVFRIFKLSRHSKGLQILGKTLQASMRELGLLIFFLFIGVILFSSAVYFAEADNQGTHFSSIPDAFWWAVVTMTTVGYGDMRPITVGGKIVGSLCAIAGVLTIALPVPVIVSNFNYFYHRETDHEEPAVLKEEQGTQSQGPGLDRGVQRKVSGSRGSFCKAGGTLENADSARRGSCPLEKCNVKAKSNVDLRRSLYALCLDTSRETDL

SMILES | IC50 [1] [nM] | melting point [°C]
O=C(NCCO)C1CCCN(c2nc(NCc3ccccn3)c3c(-c4ccccc4)csc3n2)C1 (racemic) [Racemate, 1-{5-Phenyl-4-[(pyridin-2-ylmethyl)-amino]-thieno[2,3-d]pyrimidin-2-yl}-piperidine-3carboxylic acid (2-hydroxy-ethyl)-amide] | 9 | 190 to 194
O=C(NCCO)[C@@H]1CCCN(c2nc(NCc3ccccn3)c3c(-c4ccccc4)csc3n2)C1 [(R) enantiomer (Ic), (R)-1-{5-Phenyl-4-[(pyridin-2-ylmethyl)-amino]-thieno[2,3-d]pyrimidin-2-yl}-piperidine-3-carboxylic acid (2-hydroxy-ethyl)-amide] | 5 | 71 to 76
O=C(NCCO)[C@H]1CCCN(c2nc(NCc3ccccn3)c3c(-c4ccccc4)csc3n2)C1 [(S) enantiomer (Ib), (S)-1-{5-Phenyl-4-[(pyridin-2-ylmethyl)-amino]-thieno[2,3-d]pyrimidin-2-yl}-piperidine-3-carboxylic acid (2-hydroxy-ethyl)-amide] | 27 | 61 to 65
